The values that follow come from paper PMC11137182, “Selective and brain-penetrant ACSS2 inhibitors target breast cancer brain metastatic cells” (Frontiers in Pharmacology, 2024).

By IC50 is commonly meant the concentration needed to halve the response being measured.

One series deals with T1, ACSS2 (Homo sapiens, UniProt Q9NR19).
T1 construct: His-tag (N); His-tag (C); made in house; host or cells: E. coli BL21 (DE3) RIL
As to the kind of experiment: Fluorescence polarization-based ACSS2 biochemical assay (ATP to AMP conversion). To be noted: 100 nM ACSS2, triplicate, ± SD; read-out: IC50, inhibition of ATP to AMP conversion of ACSS2. Here is the method: ACSS2 enzyme activity was measured using the TranScreener AMP^2/GMP^2 Assay Kit—FP Readout assay (BellBrook Labs). The assay was performed in white, opaque, 96-well plates. […] ACSS2 was used in assay buffer (30 mM HEPES, pH 7.4, 140 mM NaCl, 2 mM MgCl2, 5 mM sodium acetate, 2 mM DTT, 0.05% CHAPS). Substrate mix was added, followed by a 60-min incubation. Final substrate concentrations were 5 mM acetate, 50 μM ATP, and 5 μM CoA. After incubation, conjugated AMP antibody and AMP tracer were added according to the methods described by BellBrook Labs. After 30 min, the FP signal was measured using a Tecan Spark multimode microplate reader. In the analysis, data were normalized to represent the percentage inhibition of ATPase activity.
(Fluorescence polarisation rises when a labelled molecule tumbles more slowly, as on binding a larger partner.)

The subject of series [1] is 4T1BR cells. The series is described as follows: Cell death by propidium iodide flow cytometry. The class given is cell-based. To be noted: 100 μM, 48 hours. Here is the method:
(§1) Cells were prepared according to manufacturer protocol (BD Pharmingen, Propidium Iodine). Briefly, cells were trypsinized (0.25% Trypsin), counted, washed twice with 1xPBS, and resuspended in 100uL 1X binding buffer incubated with 5 uL Propidium Iodine (PI) staining solution for 15 min in the dark at room temperature. Following incubation, the volume was brought up to 500uL of 1X binding buffer. Tubes were then analyzed using a Guava easyCyte flow cytometer. All data were collected and analyzed using a Guava EasyCyte Plus system and CytoSoft (version 5.3) software (Millipore). Data are gated and expressed relative to the appropriate unstained and single-stained controls.
(In general: Flow cytometry measures light scatter and fluorescence of single cells or particles in a stream.)

The subject of series [2] is MDA-MB-231BR cells. As to the kind of experiment: Cell death by propidium iodide flow cytometry. It is filed as cell-based. To be noted: 100 μM, 48 h. As to the method: as §1
For series [3], the system named is MDA-MB-231BR tumor bearing brain slices. As to the kind of experiment: Ex vivo tumor-brain slice model. Set-up: species or system Nu/Nu mice. Conditions: MDA-MB-231BR brain slices, 100 μM, 6 days, bioluminescence. Here is the method: Ex vivo brain slice tumor model was performed as previously described ([Ciraku et al., 2021]). Briefly, Nu/Nu athymic 4–6 week old mice Charles River Laboratories (Wilmington, MA, United States) were immobilized using the Just for Mice Stereotaxic Frame (Harvard Apparatus, Holliston, MA, United States) and injected intracranially with 5uL of 20,000 cells/uL solution of luciferase tagged MDA-MB-231BR or 4T1BR cells. Tumor growth was monitored via bioluminescence imaging on the IVIS system (Perkin Elmer, Waltman, MA, United States). Organotypic hippocampal cultures were prepared as described previously ([Ciraku et al., 2021]). Briefly, adult mice (4–6 weeks) or mice after 12 days following intracranial injection were decapitated and their brains rapidly removed into ice-cold (4°C) sucrose-aCSF composed of the following (in mM): 280 sucrose, 5 KCl, 2 MgCl2, 1 CaCl2, 20 glucose, 10 HEPES, 5 Na^+-ascorbate, 3 thiourea, 2 Na^+-pyruvate; pH = 7.3. […] Tumor growth was monitored via bioluminescence imaging on the IVIS 200 system (Perkin Elmer), and results were analyzed using Living Image software (Caliper Life Sciences, Waltham, MA, United StatesUnited States). […] Tissues were incubated at 37 ℃ , 5% CO2 for 4 h, and absorbance at 490 nm was measured with a Tecan Spark Microplate reader.

The subject of series [4] is MDA-MB-231BR cells. As to the kind of experiment: Intracranial MDA-MB-231BR tumor model in vivo. Set-up: species or system Nu/Nu mice. Here is the method:
(§2) Intracranial injections were performed as previously described ([Ciraku et al., 2021]). Briefly, Nu/Nu or BalbC female 4–6 week old mice from Charles River Laboratories (Wilmington, MA, United States) were immobilized using the Just for Mice ™ Stereotaxic Frame (Harvard Apparatus, Holliston, MA, United States) and injected intracranially with 5 μL of a 20,000 cells/μL solution of MDA-MB-231BR or 4T1BR cells stably expressing luciferase. Mice were injected intraperitoneally with 30 mg/kg of Dluciferin solution (Caliper Life Sciences, Hopkinton, MA) and results analyzed using Living Image software (Caliper Life Sciences, Waltham, MA, United States). For in vivo analog trials, mice were weighed daily and injected intraperitoneally with 50 mg/kg of AD-8007. Mice were euthanized 3 weeks after injection following survivial or at the end of drug treatment at indiciated day. The animal study was reviewed and approved by the Institutional Animal Care and Use Committee.
(§3) Brains were dissected, fixed in 4% formalin and prepared for processing/sectioning/embedding/blocking to generate paraffin embedded slides. The slides containing brain metastatic tumors were deparaffinized by Xylene and subsequent rehydration was done by decreasing concentrations of ethanol-water mixture. Antigen retrieval was done by citrate buffer immersion and steaming the slides for 45 min. Tissue was treated with 200–400 ul 1% BSA+5% serum PBS solution for 1h. Primary incubation was done at 4 °C overnight using primary antibody anti-FasN (Cell Signaling Technologies, C20G5). Secondary antibody incubation was done for an hour at RT with HRP conjugated Anti-Rabbit Secondary antibody (Cell Signaling Technologies). at 1:100 dilution. For IHC the stain was developed using the DAB kit by Vectastain (Vector Labs, Burlingame, CA, United States). Finally, slides were mounted and imaged under a light microscope. H&E and Ki-67 staining were performed and assessed at TJU, Department of Pathology, Philadelphia, PA by board-certified pathologist.

Series [5] relates to 4T1BR cells. As to the kind of experiment: Intracranial 4T1BR tumor model in vivo. Details: species or system BalbC mice. As to the method:
as §2, §3

T1 sequence (Q9NR19 whole entry): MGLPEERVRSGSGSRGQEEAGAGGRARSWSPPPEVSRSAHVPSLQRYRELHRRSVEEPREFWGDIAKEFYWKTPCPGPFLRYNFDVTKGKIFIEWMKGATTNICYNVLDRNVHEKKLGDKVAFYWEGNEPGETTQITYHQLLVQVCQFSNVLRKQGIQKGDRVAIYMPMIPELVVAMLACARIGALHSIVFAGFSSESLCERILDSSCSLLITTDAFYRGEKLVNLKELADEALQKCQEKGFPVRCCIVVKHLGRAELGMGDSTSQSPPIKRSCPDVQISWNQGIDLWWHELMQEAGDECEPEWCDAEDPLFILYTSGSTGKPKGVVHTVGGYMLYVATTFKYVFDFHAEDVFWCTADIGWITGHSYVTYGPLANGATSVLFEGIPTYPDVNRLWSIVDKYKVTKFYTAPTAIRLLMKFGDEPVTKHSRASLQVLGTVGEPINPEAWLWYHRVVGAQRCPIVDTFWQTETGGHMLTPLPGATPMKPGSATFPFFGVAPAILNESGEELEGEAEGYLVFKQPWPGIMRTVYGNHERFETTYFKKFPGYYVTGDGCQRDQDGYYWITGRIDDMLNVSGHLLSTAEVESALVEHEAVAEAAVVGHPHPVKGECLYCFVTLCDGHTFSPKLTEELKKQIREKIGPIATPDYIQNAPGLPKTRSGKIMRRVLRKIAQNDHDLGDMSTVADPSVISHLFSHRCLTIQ

Turning to `N[C@H](C(=O)N1CCCC(c2ccccc2)(c2ccccc2)C1)C1CC1` [AD-8007], the IC50 on ACSS2 is 890 ± 290 nM. The “cell death (PI+ cells)” value in the series on 4T1BR cells [1] and in the series with MDA-MB-231BR cells [2] was “significantly increased cell death” each time. Further, in series [3], the “tumor growth of preformed tumors ex vivo” value is recorded as “significantly reduced tumor growth of preformed tumors”. The “tumor burden (bioluminescence)” value in the series with MDA-MB-231BR cells [4] (MDA-MB-231BR intracranial, 50 mg/kg daily, 14 days) is given as “significantly reduced tumor burden”; in the series with 4T1BR cells [5] (4T1BR intracranial, immunecompetent mice, 10 days), “reduced tumor burden”. Further, the “tumor burden and proliferation via H&E and Ki67 staining” value in the series on MDA-MB-231BR cells [4] (MDA-MB-231BR intracranial, 14 days post treatment) is “reduction in tumor burden and proliferation”. For the same molecule, the survival result is given as “significantly extended surivial” with MDA-MB-231BR cells [4] (MDA-MB-231BR intracranial, drug withdrawn after treatment, Kaplan Meyer) and “significantly extended survival” in the series on 4T1BR cells [5] (4T1BR intracranial, Kaplan Meyer). For the same molecule, the “FASN staining in tumors” value in the series on MDA-MB-231BR cells [4] (MDA-MB-231BR tumors, 14 days treatment, IHC) was “reduced expression of FASN staining”. The body weight entry in the series with MDA-MB-231BR cells [4] (immunodeficient mice, 50 mg/kg daily, 14 days) is recorded as “did not cause significant weight lost”; in the series with 4T1BR cells [5] (immunecompetent mice, 10 days) it was “did not cause significant weight lost”. Moreover, the Ki-67 staining entry with 4T1BR cells [5] (4T1BR intracranial, 10 days post treatment) is given as “reduced Ki-67 staining”.
